Test results taken from patent US11230526B1, “Cylcoalkenyl derivatives useful as agonists of the GPR120 and/or GPR40 receptors” (Janssen Pharmaceutica NV, priority 2018, dated 2022).

How the values were obtained:
Assay type in all cases: cell-based
Human GPR120 short form [1] = molecular target: T1, Human GPR120 short form (Homo sapiens, UniProt Q5NUL3); experiment: Human GPR120 calcium flux assay, Procedure Calcium B (4200 cells/well)
T1 construct: expressed in transfected cells
T1 sequence (Q5NUL3 1-361): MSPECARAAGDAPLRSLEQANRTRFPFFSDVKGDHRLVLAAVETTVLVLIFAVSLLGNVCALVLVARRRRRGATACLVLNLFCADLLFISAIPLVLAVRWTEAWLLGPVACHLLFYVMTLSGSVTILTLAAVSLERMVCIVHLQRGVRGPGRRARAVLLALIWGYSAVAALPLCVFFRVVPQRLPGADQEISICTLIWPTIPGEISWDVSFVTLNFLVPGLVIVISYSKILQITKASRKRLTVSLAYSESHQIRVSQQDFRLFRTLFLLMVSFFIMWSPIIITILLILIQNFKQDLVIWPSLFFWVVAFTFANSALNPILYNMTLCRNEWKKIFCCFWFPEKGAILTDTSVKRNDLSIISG
Method in brief: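 HEK293 cells stably expressing human GPR120 (NM_001195755.1), 4200 cells/well, starved 1 h and loaded with Fluo-4 NW plus probenecid. Ligand-evoked calcium flux read on FLIPR for 300 s after a 10 s baseline. RFU = Fmax−Fmin; EC50 from four-parameter concentration-response fit.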

Human GPR120 short form [2] = molecular target: T1, Human GPR120 short form; experiment: Human GPR120 calcium flux assay, Procedure Calcium A (2500 cells/well)
From the text: Human GPR120 in Calcium Flux Assay
This in vitro assay serves to assess test compound agonist activity against the short splice variant (SVS with Accession number NM_001195755.1 confirmed by sequencing data) of the GPR120 receptor. The Human Short splice variant #2 (NM_001195755.1) is missing an in-frame coding exon compared to variant 1 (the Human Long splice variant NM_181745.3), resulting in a shorter isoform (GPR120-S) lacking a 16 aa protein segment compared to isoform GPR120-L. The assay platform utilizes HEK-293 cells stably transfected to express the Human GPR120 short form. These cells are first loaded with the Ca^+2 sensitive dye, Fluo-4 NW. Upon stimulation, intracellular released Ca^+2 can bind to the dye and alter its fluorescence intensity. This increase in fluorescence signal, and thus the flux in intracellular [Ca^2+], is detected and quantitated by fluorescence imaging using a FLIPR reader. The effect of the agonist is measured as a function of concentration and used to calculate an EC50 based upon a response curve.
In this procedure 2500 cells/well were employed.
A Human GPR120 clone (Genbank accession number NM_001195755.1) was placed into the pcDNA3.1 mammalian expression vector carrying the neomycin resistance gene. A stable mammalian cell was generated by placing the above clone into a HEK293 background. Clonal cells responding to long chain fatty acids had expression levels of GPR120 confirmed by RT-qPCR. Human HEK-GPR120 cells were cultured in Dulbecco's Modified Eagle's Medium (DMEM)/F12 medium supplemented with 10% fetal bovine serum (FBS), 1% L-Glutamine and 1% penicillin/streptomycin and 0.5 mg/ml G-418. Cells were split 2 times a week to keep the cells in the log-phase growth.
In preparation for the assay, HEK cells stably transfected with Human GPR120 (2.5K cells per well in 25 uL growth medium) were seeded into 384-well plates and then incubated overnight (37° C., 5% CO2). The next day, the media was changed to 20 μL assay buffer and the cell starved for 1 h at 37° C. The dye loading solution (2× dye) was prepared using 10 mL assay buffer, 100 μL of 250 mM probenecid, 1 bottle of Component A, and 20 μl of dye in DMSO. Twenty μL of the 2× dye loading buffer was then added to each well. The plates were incubated at 37° C. for 30 min, then at room temperature for an additional 15 minutes, before performing the assay on FLIPR.
The assay was performed on a FLIPR plate reader using the following parameters. Baseline was read for 10 seconds at 1 sec intervals. The program was set to transfer 10 μL of ligand from compound plate to cell plate after baseline reading. Aspiration was executed at: 10 μL/sec speed, 4.6 μL height, Dispensing was executed at: 30 μL/sec speed, 45 μL height. After compound addition, each well was read for 300 sec, with measurements collected at 1 sec intervals.
The kinetic data from the FLIPR was based upon a 5 minute window for data collection. The fluorescence of each sample well was used for individual calculations of a normalized RFU value, which was defined as maximum response minus the minimum response. The normalized fluorescence reading (RFU) was calculated as follows: RFU=Fmax−Fmin
The Fitting Equation was: Y=Bottom+(Top-Bottom)/(1+10^((Log EC50−X)*HillSlope)), where X is the log of the concentration and Y is the response.

human GPR40 = molecular target: T2, human GPR40 (Homo sapiens, UniProt O14842); experiment: GPR40 calcium flux assay, human GPR40; conditions: HEK293 cells stably expressing GPR40; table does not say human or rat
T2 construct: expressed in transfected cells
T2 sequence (O14842 whole entry): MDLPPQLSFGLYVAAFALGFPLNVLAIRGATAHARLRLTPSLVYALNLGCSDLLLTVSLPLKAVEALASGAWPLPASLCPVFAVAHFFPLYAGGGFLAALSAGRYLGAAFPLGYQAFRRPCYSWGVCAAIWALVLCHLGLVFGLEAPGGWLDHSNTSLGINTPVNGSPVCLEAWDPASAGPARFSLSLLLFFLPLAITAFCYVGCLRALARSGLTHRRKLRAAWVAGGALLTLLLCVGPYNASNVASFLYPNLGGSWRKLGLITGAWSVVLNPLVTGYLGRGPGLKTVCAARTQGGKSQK
Method in brief: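 Cells preincubated 1 h at 37° C. in HBSS, 20 mM HEPES, 0.1% BSA, then Fluo 8 calcium dye 30 min at 37° C. and 15 min at room temperature.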

SMILES | EC50 (Human GPR120 short form [1]) [µM] | EC50 (Human GPR120 short form [2]) [µM] | EC50 (human GPR40) [µM]
Cc1c(CCC(=O)O)ccc(OCC2=C(c3ncccn3)CCCC2)c1C [Compound 475, 3-[2,3-dimethyl-4-[(2-pyrimidin-2-ylcyclohexen-1-yl)methoxy]phenyl]Propanoic Acid] | 2.27 | 4.48 | > 5
Cc1c(CCC(=O)O)ccc(OCC2=C(c3ccc(Cl)cc3)CCC2(O)C(F)(F)F)c1C (centres unmarked) [Compound 69, 3-[4-[[2-(4-chlorophenyl)-5-hydroxy-5-(trifluoromethyl)cyclopenten-1-yl]methoxy]-2,3-dimethyl-phenyl]Propanoic Acid] | 2.46 | > 5 | > 5
O=C(O)CCc1cc(F)c(OCC2=C(c3ccc(Cl)cc3)CCC(F)(F)C2)c(F)c1 [Compound 491, 3-[4-[[2-(4-chlorophenyl)-5,5-difluoro-cyclohexen-1-yl]methoxy]-3,5-difluoro-phenyl]Propanoic Acid] | 0.097 | 0.532 | > 5
Cc1ccc(C2=C(COc3ccc(CCC(=O)O)c(F)c3F)CCC2)cc1[N+](=O)[O-] [Compound 92, 3-(2,3-difluoro-4-((2-(4-methyl-3-nitrophenyl)cyclopent-1-en-1-yl)methoxy)phenyl)Propanoic Acid] | 0.373 | 1.26 | > 5
Cc1c(CCC(=O)O)ccc(OCC2=C(c3ccccn3)CCCC2)c1C [Compound 490, 3-[2,3-dimethyl-4-[[2-(2-pyridyl)cyclohexen-1-yl]methoxy]phenyl]Propanoic Acid] | 0.743 | 2.19 | > 5
Cc1ccc(C2=C(COc3ccc(CCC(=O)O)c(C)c3C)CCC2)cc1[N+](=O)[O-] [Compound 115, 3-(2,3-dimethyl-4-((2-(4-methyl-3-nitrophenyl)cyclopent-1-en-1-yl)methoxy)phenyl)Propanoic Acid] | 0.852 | 1.12 | > 5
Cc1c(CCC(=O)O)ccc(OCC2=C(c3ccc(S(C)(=O)=O)cc3)CCC2)c1C [Compound 74, 3-[2,3-dimethyl-4-[[2-(4-methylsulfonylphenyl)cyclopenten-1-yl]methoxy]phenyl]Propanoic Acid] |  | > 20 | > 10
Cc1c(CCC(=O)O)ccc(OCC2=C(c3ccsc3)CCC2)c1C [Compound 22, 3-(2,3-dimethyl-4-((2-(thiophen-3-yl)cyclopent-1-en-1-yl)methoxy)phenyl)Propanoic Acid] |  | > 20 | > 5
Cc1c(CCC(=O)O)ccc(OCC2=C(c3cccc(N(C)C)c3)CCC2)c1C [Compound 114, 3-[4-[[2-[3-(dimethylamino)phenyl]cyclopenten-1-yl]methoxy]-2,3-dimethyl-phenyl]Propanoic Acid] |  | > 5 | > 5
O=C(O)CCc1ccc(OCC2=C(c3ccc(Cl)cc3)CCC2O)c(F)c1F (centres unmarked) [Compound 45] |  | > 20 | > 5

Now from value to molecule:

EC50 (Human GPR120 short form [1]) [µM] | EC50 (Human GPR120 short form [2]) [µM] | EC50 (human GPR40) [µM] | SMILES
0.067 | 0.097 | > 5 | Cc1c(CCC(=O)O)ccc(OCC2=C(c3ccc(Cl)c(F)c3)CCC2)c1C [Compound 157, 3-(4-((2-(4-chloro-3-fluorophenyl)cyclopent-1-en-1-yl)methoxy)-2,3-dimethylphenyl)Propanoic Acid]
0.668 | 2.78 | > 5 | Cc1c(CCCC(=O)O)ccc(OCC2=C(c3ccc(Cl)cc3)CCC2)c1C [Compound 127, 4-[4-[[2-(4-chlorophenyl)cyclopenten-1-yl]methoxy]-2,3-dimethyl-phenyl]Butanoic Acid]
1.45 | 2.17 | > 5 | Cc1c(CCC(=O)O)ccc(OCC2=C(c3ccncc3)CCCC2)c1C [Compound 465, 3-[2,3-dimethyl-4-[[2-(4-pyridyl)cyclohexen-1-yl]methoxy]phenyl]Propanoic Acid]
1.45 | 2.36 | > 5 | Cc1c(CCC(=O)O)ccc(OCC2=C(c3ccc(C#N)cc3)CCCC2)c1C [Compound 520, 3-[4-[[2-(4-cyanophenyl)cyclohexen-1-yl]methoxy]-2,3-dimethyl-phenyl]Propanoic Acid]
0.182 | 1.59 | > 5 | Cc1cc(OCC2=C(c3ccc(Cl)cc3)CCCC2)ccc1CCC(=O)O [Compound 506, 3-[4-[[2-(4-chlorophenyl)cyclohexen-1-yl]methoxy]-2-methyl-phenyl]Propanoic Acid]
0.327 | 0.895 | > 5 | Cc1cc(OCC2=C(c3ccc(Cl)cc3)CCC2)cc(C)c1CCC(=O)O [Compound 119, 3-(4-((2-(4-chlorophenyl)cyclopent-1-en-1-yl)methoxy)-2,6-dimethylphenyl)Propanoic Acid]
0.603 | 1.93 | > 5 | O=C(O)CCc1ccc(OCC2=C(c3ccccc3)CCC2)cc1 [Compound 19, 3-(4-((2-phenylcyclopent-1-en-1-yl)methoxy)phenyl)Propanoic Acid]
0.256 | 1.18 | > 5 | Cc1ccc(C2=C(COc3ccc(CCC(=O)O)cc3C)CCCC2)cn1 [Compound 477, 3-[3-methyl-4-[[2-(6-methyl-3-pyridyl)cyclohexen-1-yl]methoxy]phenyl]Propanoic Acid]
0.33 | 2.82 | 4.02 | O=C(O)CCc1ccc(OCC2=C(c3ccc(Cl)cc3)CCCC2)cc1F [Compound 504, 3-[4-[[2-(4-chlorophenyl)cyclohexen-1-yl]methoxy]-2-fluoro-phenyl]Propanoic Acid]
 | > 20 | > 5 | COc1ccc(C2=C(COc3ccc(CCC(=O)O)c(C)c3C)CCC2)cc1 [Compound 21, 3-(4-((2-(4-methoxyphenyl)cyclopent-1-en-1-yl)methoxy)-2,3-dimethylphenyl)Propanoic Acid]
 | > 5 | > 10 | Cc1c(CCC(=O)O)ccc(OCC2=C(c3ccc([S+](C)[O-])cc3)CCCC2)c1C (centres unmarked) [Compound 507, 3-[2,3-dimethyl-4-[[2-(4-methylsulfinylphenyl)cyclohexen-1-yl]methoxy]phenyl]Propanoic Acid]
0.755 | 4.61 | > 5 | Cc1c(CCC(=O)O)ccc(OCC2=C(c3ccc(C(C)C)cc3)CCCC2)c1C [Compound 516, 3-[4-[[2-(4-isopropylphenyl)cyclohexen-1-yl]methoxy]-2,3-dimethyl-phenyl]Propanoic Acid]
 | > 5 | > 5 | Cc1c(CCC(=O)O)ccc(OCC2=C(c3ccc(S(C)(=O)=O)cc3)CCCC2)c1C [Compound 515, 3-[2,3-dimethyl-4-[[2-(4-methylsulfonylphenyl)cyclohexen-1-yl]methoxy]phenyl]Propanoic Acid]
